# Measured values: ChEMBL document CHEMBL4699624, “Targeting Trimeric and Tetrameric Proanthocyanidins of Cinnamomum verum Bark as Bioactives for Dental Therapies” (J Nat Prod, 2020)
# Activity calls are given as the source filed them. The rule behind the calls is not given here.
# What was measured:
# Hathewaya histolytica = assay: Inhibition of Clostridium histolyticum collagenase-induced degradation of human molar dentin assessed as reduction in degradation after 24 hrs
# Dentine = assay: Induction of apparent modulus of elasticity in human molar dentine after 1 hr by bending method; type: functional, tissue-based
inhibition (Hathewaya histolytica),SMILES,Activity (Dentine)
Active,Oc1cc(O)c2c(c1)O[C@@]1(c3ccc(O)c(O)c3)Oc3cc(O)c4c(c3[C@@H]2[C@H]1O)O[C@H](c1ccc(O)c(O)c1)[C@H](O)[C@H]4c1c(O)cc2c(c1O)[C@@H]1c3c(cc(O)c4c3O[C@H](c3ccc(O)c(O)c3)[C@@H](O)C4)O[C@](c3ccc(O)c(O)c3)(O2)[C@@H]1O,Active
Active,Oc1cc(O)c2c(c1)O[C@@]1(c3ccc(O)c(O)c3)Oc3cc(O)c4c(c3[C@@H]2[C@H]1O)O[C@H](c1ccc(O)c(O)c1)[C@H](O)[C@H]4c1c(O)cc(O)c2c1O[C@H](c1ccc(O)c(O)c1)[C@H](O)C2,Active
Active,Oc1cc(O)c2c(c1)O[C@H](c1ccc(O)c(O)c1)[C@H](O)[C@H]2c1c(O)c2c(c3c1O[C@]1(c4ccc(O)c(O)c4)Oc4cc(O)cc(O)c4[C@H]3[C@H]1O)O[C@H](c1ccc(O)c(O)c1)[C@H](O)[C@H]2c1c(O)cc(O)c2c1O[C@H](c1ccc(O)c(O)c1)[C@H](O)C2,Active
